One experiment has as its target T1, endogenous rat PTHR1 (Rattus norvegicus, UniProt P25961).
T1 construct: UMR-106 cells, which natively express rat PTHR1; endogenous in cells; host or cells: UMR-106 (ATCC)
T1 sequence (P25961 27-591): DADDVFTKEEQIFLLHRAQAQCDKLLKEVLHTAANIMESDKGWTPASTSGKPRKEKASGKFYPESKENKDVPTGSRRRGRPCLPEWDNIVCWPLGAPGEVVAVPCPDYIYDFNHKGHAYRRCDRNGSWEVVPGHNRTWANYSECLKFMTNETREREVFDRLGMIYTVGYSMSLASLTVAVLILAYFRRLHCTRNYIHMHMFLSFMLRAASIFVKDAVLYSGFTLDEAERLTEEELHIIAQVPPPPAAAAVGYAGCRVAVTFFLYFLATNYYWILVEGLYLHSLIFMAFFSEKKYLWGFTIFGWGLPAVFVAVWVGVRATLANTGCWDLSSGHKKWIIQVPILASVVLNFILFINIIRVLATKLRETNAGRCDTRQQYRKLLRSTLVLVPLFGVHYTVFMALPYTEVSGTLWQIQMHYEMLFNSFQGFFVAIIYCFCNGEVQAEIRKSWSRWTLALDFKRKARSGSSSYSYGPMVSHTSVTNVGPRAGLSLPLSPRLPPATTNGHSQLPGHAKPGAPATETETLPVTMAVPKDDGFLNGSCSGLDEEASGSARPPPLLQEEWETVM
The experiment can be described thus: cAMP production in UMR-106 cells. The experiment is classed as cell-based.

For the next experiment, the target named is T2, hPTHR1 (Homo sapiens, UniProt Q03431).
T2 construct: similar to that of cells expressing full-length hPTHR1; expressed in transfected cells; host or cells: COS-7 (transient, FuGENE HD)
T2 sequence (Q03431 27-593 E93Y/D94P/K95Y/E96D/A97V/T99D/G100Y/S101A): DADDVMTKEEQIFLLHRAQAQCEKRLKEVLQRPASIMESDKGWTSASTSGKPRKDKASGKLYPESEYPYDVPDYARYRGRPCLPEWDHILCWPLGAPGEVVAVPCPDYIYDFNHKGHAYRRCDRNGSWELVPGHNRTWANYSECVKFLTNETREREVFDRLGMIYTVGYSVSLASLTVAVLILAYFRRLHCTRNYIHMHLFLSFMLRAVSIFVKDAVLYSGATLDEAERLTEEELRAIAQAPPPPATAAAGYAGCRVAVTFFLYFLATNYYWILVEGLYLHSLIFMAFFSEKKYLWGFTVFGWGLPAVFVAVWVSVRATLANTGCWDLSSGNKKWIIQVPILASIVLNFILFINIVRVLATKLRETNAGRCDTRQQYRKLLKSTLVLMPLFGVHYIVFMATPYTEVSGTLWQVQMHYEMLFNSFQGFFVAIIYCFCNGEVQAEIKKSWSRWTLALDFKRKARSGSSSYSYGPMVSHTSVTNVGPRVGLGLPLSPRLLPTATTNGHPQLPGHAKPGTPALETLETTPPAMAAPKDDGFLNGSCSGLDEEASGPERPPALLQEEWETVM
The experiment is described as follows: Phospholipase C activity assay ([3H]-inositol phosphate) in COS-7 cells expressing hPTHR1. The experiment is classed as cell-based. Conditions: COS-7 cells expressing hPTHR1, 40 min; concentration that achieves the EC50 for hPTH(1–34). How it is done:
COS-7 cells (ATCC) were seeded into a 96-well flat-bottomed plate (1.4 × 10^4 cells per 100 μl per well) and incubated overnight. The next day, the COS-7 cells were transfected by adding 10 μl of a mixture of hPTHR1 plasmid or empty vector (0.1 μg per well), FuGENE HD Transfection Reagent (0.4 μl per well, Promega), and Opti-MEM I Reduced Serum Medium (10 μl per well, Life Technologies) to each well. On the second day after the cells were seeded into the plate, the culture medium in the wells was discarded, and 100 μl of ^3H-myoinositol/0.1% BSA/DMEM adjusted to 111 kBq ml^−1 (PerkinElmer, Inc.) was added to each well. […] After that, the ^3H radioactivity was measured using a liquid scintillation analyzer. EC50 values were determined from three independent experiments in […] by a non-linear regression Emax model (JMP ver.9.0.2, SAS Institute). […] The geometric means of the EC50 values obtained in three experiments in duplicate were calculated using Microsoft Office Excel 2007.

`Cc1cc(N2C(=O)NC(=O)C2(C)C)cc(C)c1CCS(=O)(=O)N1CCC2(CC1)N=C(c1ccc(OC(F)(F)F)cc1)NC2=O` [PCO371, 1-{3,5-dimethyl-4-[2-({4-oxo-2-[4-(trifluoromethoxy)phenyl]-1,3,8-triazaspiro[4.5]dec-1-en-8-yl}sulfonyl)ethyl]phenyl}-5,5-dimethylimidazolidine-2,4-dione]: the cAMP production entry is listed as “did not induce cAMP production” at endogenous rat PTHR1 (1 μmol l^−1, 20 min) and “induced cAMP production” on endogenous rat PTHR1 (20 min). The compound also displayed an EC50 on hPTHR1 of 17 µM.

As usually defined, the EC50 is the concentration that produces a half-maximal response.

(Values after paper PMC5120204, “Identification of an orally active small-molecule PTHR1 agonist for the treatment of hypoparathyroidism” (Nature Communications, 2016).)
